Laboratory results as given in patent US20220249599A1, “TREATMENT OF IMPLANTS WITH ENGINEERED ANTIMICROBIAL AMPHIPHILIC PEPTIDES” (priority 2018, published 2022).
Values after ≈ are worked out from the molar mass of the structure shown. Like-named read-outs stand apart in the source and are kept apart here.

Columns and labels:
[1] = test system: Acinetobacter spp. (n = 104); format: cell-based; details: Acinetobacter spp. (n = 104), CLSI breakpoints
Protocol: (§1) The clinical isolates were obtained from USA hospitals. […] Plates were incubated at 35° C. overnight.

[2] = test system: Escherichia coli (n = 101); format: cell-based; details: Escherichia coli (n = 101), CLSI breakpoints, colistin EUCAST
Protocol: as §1

[3] = test system: Pseudomonas aeruginosa (n = 109); format: cell-based; details: Pseudomonas aeruginosa (n = 109), CLSI breakpoints
Protocol: as §1

[4] = test system: Enterobacter spp. (n = 102); format: cell-based, Enterobacter aerogenes and E. cloacae; details: Enterobacter spp. (n = 102), CLSI breakpoints, colistin EUCAST
Protocol: as §1

[5] = test system: Staphylococcus aureus (n = 104); experiment: microbe, parasite or virus in culture; format: cell-based; details: Staphylococcus aureus (n = 104); for % R (isolates resistant): CLSI breakpoints
Protocol: as §1

[6] = test system: Enterococcus faecium (n = 104); experiment: microbe, parasite or virus in culture; details: Enterococcus faecium (n = 104), CLSI breakpoints
Protocol: Comparator antibiotics were supplied by Micromyx, and stock solutions were prepared on the first day of testing using solvents recommended by CLSI (1). Stock solutions of all compounds were made at 40× the final testing concentration and stored at −80° C. prior to testing. Information regarding compound source, catalog and lot number, testing concentrations and drug diluent for the comparators and test agent are detailed below in Table 3.
The test organisms evaluated in this study consisted of clinical isolates from the Micromyx Repository and reference isolates from the American Type Culture Collection (ATCC; Manassas, Va.). The clinical isolates were obtained from USA hospitals. Upon initial receipt at Micromyx, the organisms were sub-cultured onto an appropriate agar medium. Following incubation, colonies were harvested from these plates and cell suspensions prepared and frozen at −80° C. with a cryoprotectant. Prior to testing, the isolates were streaked from frozen vials onto Trypticase Soy Agar with 5% sheep blood (Becton Dickenson [BD]; Sparks, MD; Lot Nos. 7173618, 7166759, 7208688, 72144895, 7228505 and Remel Lenexa, Kans. Lot No. 212574). Plates were incubated at 35° C. overnight.
Mueller Hinton II broth (MHB II; BD; Lot Nos. 6258541 and 7143896) was used for MIC testing of aerobic organisms.
(§2) MIC values were determined using a broth microdilution procedure described by CLSI (1, 3). Automated liquid handlers (Multidrop 384, Labsystems, Helsinki, Finland; Biomek 2000 and Biomek FX, Beckman Coulter, Fullerton Calif.) were used to conduct serial dilutions and liquid transfers.
To prepare the drug mother plates, which would provide the serial drug dilutions for the replicate daughter plates, the wells of columns 2-12 of standard 96-well microdilution plates (Costar 3795) were filled with 150 µl of the designated diluent for each row of drug. The test articles and comparator compounds ([…] at 40× the highest concentration to be tested) were dispensed into the appropriate wells in column 1. The Biomek 2000 was then used to make 2-fold serial dilutions in the mother plates from column 1 through column 11. The wells of Column 12 contained no drug and served as the organism growth control wells for the assay.
(§3) The daughter plates were loaded with 185 g L per well of MHB II using the Multidrop 384. The daughter plates were completed on the Biomek FX instrument which transferred 5 µL of drug solution from each well of a mother plate to the corresponding well of each daughter plate in a single step. A standardized inoculum of each test organism was prepared per CLSI methods (1). The inoculum for each organism was dispensed into sterile reservoirs divided by length (Beckman Coulter), and the Biomek 2000 was used to inoculate the plates. Daughter plates were placed on the Biomek 2000 work surface in reverse orientation so that inoculation took place from low to high drug concentration.
(§4) Plates were stacked 3-4 high, covered with a lid on the top plate, placed in plastic bags, and incubated at 35° C. for 16 to 20 hrs. Following incubation, the microplates were removed from the incubator and viewed from the bottom using a plate viewer. […] The MIC was read and recorded as the lowest concentration of drug that inhibited visible growth of the organism.
Clinical breakpoints to determine percent resistance within a given organism group were obtained from CLSI (3), with the exception of colistin for K. pneumoniae, Enterobacter spp., and E. coli, which are only available from EUCAST.

[7] = test system: Acinetobacter baumannii ATCC BAA-1797 (MDR); experiment: microbe, parasite or virus in culture; format: cell-based; details: ATCCBAA1797; Acinetobacter baumannii ATCC BAA-1797 (MDR); read-out: MIC
Protocol: Each peptide was formulated in PBS buffer prior to testing. Peptides of SEQ ID NO:5 and SEQ ID NO:8 were brought up in 100% DMSO with 0.002% polysorbate-80 at 1.28 mg/mL (40× the highest final test concentration of 32 mcg/mL). Final test concentration of DMSO was 2.5% in the assay at the first dilution for those two compounds.
Mueller Hinton II broth (MHB II; BD; Lot Nos. 6258541 and 7143896) was used for MIC testing of aerobic organisms. 0.002% polysorbate 80 (P80) was added to the test medium.
as §2
To prepare the drug mother plates, which would provide the serial peptide dilutions for the replicate daughter plates, the wells of columns 2-12 of standard 96-well microdilution plates (Costar 3795) were filled with 150 µl of the designated diluent for each row of peptide.
The test articles and comparator compounds ([…] at 40× the highest concentration to be tested) were dispensed into the appropriate wells in column 1. The Biomek 2000 was then used to make 2-fold serial dilutions in the mother plates from column 1 through column 11. The wells of Column 12 contained no drug and served as the organism growth control wells for the assay.
as §3, with “185 μL” for “185 g L”, “5 uL” for “5 µL”, “of peptide” for “of drug”, “CLSI methods.” for “CLSI methods (1).”
as §4, with “peptide” for “drug”

[8] = test system: Klebsiella pneumoniae (n = 101); format: cell-based
Protocol: as §1

## CC(C)(O/N=C(\C(=O)N[C@@H]1C(=O)N2C(C(=O)[O-])=C(C[n+]3ccccc3)CS[C@H]12)c1csc(N)n1)C(=O)O [Ceftazidime]
[1]
  % R (isolates resistant): 61.5%
[2]
  % R (isolates resistant): 33.6%
[3]
  % R (isolates resistant): 14.6%
[4]
  % R (isolates resistant): 36.3%

## CCC[C@@H]1C[C@@H](C(=O)N[C@@H]([C@H]2O[C@H](SC)[C@H](O)[C@@H](O)[C@H]2O)[C@H](C)Cl)N(C)C1 [Clindamycin]
[5]
  MIC90: >16 µg/mL
  % R (isolates resistant): 37.5%

## C[C@H]1c2cccc(O)c2C(=O)C2=C(O)[C@]3(O)C(=O)C(C(N)=O)=C(O)[C@@H](N(C)C)[C@@H]3[C@@H](O)[C@@H]21 [Doxycycline]
[6]
  % R (isolates resistant): 25%
[5]
  % R (isolates resistant): 0%
[5]; all methicillin-resistant
  MIC range: 0.06 to 8 µg/mL

## C[C@H]1COc2c(N3CCN(C)CC3)c(F)cc3c(=O)c(C(=O)O)cn1c23 [Levofloxacin]
[7]
  MIC: 4 µg/mL (≈ 11.1 µM)
[5]
  MIC90: >8 µg/mL
  % R (isolates resistant): 82.7%
[5]; listed as levofloxacin
  % R (isolates resistant): Over 80%
[1]
  % R (isolates resistant): 66.3%
[2]
  % R (isolates resistant): 46.5%
[2]; listed as levofloxacin
  % R (isolates resistant): ~50%
[8]
  % R (isolates resistant): over 60%
[8]; Klebsiella pneumoniae (n = 101), CLSI breakpoints, colistin EUCAST
  % R (isolates resistant): 67.3%
[3]
  % R (isolates resistant): 21.1%
[4]
  % R (isolates resistant): 4.9%
